pIC50: −log10 of the molar value.
Biological target: GABA-A receptor
Assay: 35S-TBPS binding assay (GABAA receptor binding ability assay)
Parameters: species or system Sprague-Dawley rat
Conditions: rat cerebral cortex cell membrane, 5 μM GABA, 2 nM 35S-TBPS; read-out: IC50 on inhibiting the TBPS binding activity, 35S-TBPS bindng assay
Summary of the method: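 Male Sprague-Dawley rat cerebral cortex membranes in PBS, preincubated with compound (1% DMSO, 8-point 3-fold series) 5 min at 25° C, then GABA 5 μM final 5 min, then 2 nM 35S-TBPS for 20 h at 4° C. Bound radioactivity filtered on PEI-treated GF/C and counted. % inhibition relative to DMSO and 10 μM P026-2 controls; IC50 from 4-parameter fit.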

Row | SMILES | pIC50
1 | C[C@@]1(O)CC[C@H]2[C@H](CC[C@@H]3[C@@H]2CC[C@@]2(C)[C@H]3[C@@H]3C[C@@H]3[C@@H]2C(=O)Cn2ccc(C#N)n2)C1 [Example 2, 1-(2-((2R,4aS,4bR,6aS,7S,7aS,8aR,8bR,8cR,10aR)-2-Hydroxy-2,6a-dimethyloctadecahydrocyclopropa[4,5]cyclopenta[1,2-a]phenanthren-7-yl)-2-oxoethyl)-1H-pyrazole-3-carbonitrile] | 7.83
2 | C[C@@H]1C[C@H](C(=O)Cn2ccc(C#N)n2)[C@@]2(C)CC[C@H]3[C@@H](CC[C@@H]4C[C@](C)(O)CC[C@@H]43)[C@H]12 [Example 40, 1-(2-((3R,5R,8R,9R,10S,13S,14S,15R,17S)-3-Hydroxy-3,13,15-trimethylhexadecahydro-1H-cyclopenta[a]phenanthren-17-yl)-2-oxoethyl)-1H-pyrazole-3-carbonitrile] | 8.09

— patent US12590118B2, “Salt and crystal form of steroid derivative regulator” (Shanghai Hansoh Biomedical Co., Ltd., priority 2019, dated 2026)
